Several values for one entry are separate records, joined by “and”; a condition that tells them apart may be missing. Identical values can stand only once.
Key:
[1] = mice, tenofovir 75 mg/Kg/day; cited from earlier work
C2C12 [2] = test: Western blot of adenosine receptors, P2X7 and Panx-1 during differentiation; format: cell-based
Procedure: (§1) Cells were lysed with RIPA buffer and protein concentration was determined by BCA. […] Variations in intensity were expressed as % of basal (day 0) and expressed as mean±SEM. All results were calculated as a percentage of non-differentiated controls to minimize the intrinsic variation among different experiments.
The expression of adenosine receptors, P2X7 receptor and Panx-1 channel was analyzed during myoblast differentiation.

C2C12 [3] = test: cAMP concentration (ELISA); format: cell-based; conditions: myoblast, 1 μM, 5 minutes; control 0.58±0.13
Procedure: CAMP concentration was measured using the colorimetric cAMP ELISA kit following manufacture protocol for acetylated cell lysates (Cell Biolabs, San Diego, USA). Absorbance was measured at 450 nm using a microplate reader Tecan Spark 20M.
The CAMP signaling cascade has been linked to a delay in the onset of age-related muscle loss.

C2C12 cells = test: Cell proliferation assay (AlamarBlue); format: cell-based; conditions: 24 h after 2% HS addition, control 100±7.3%
Procedure: C2C12 cells (American Type Culture Collection, ATCC, Manassas, VA, USA) were cultured in DMEM supplemented with 10% FBS and 1% penicillin-streptomycin. To induce myogenic differentiation, 70% confluence C2C12 cells were culture in DMEM containing 2% HS (horse serum). Cells were maintained in a humidified chamber at 37° C., in 95% air and 5% CO2. Media was replaced with fresh every 48h.
C2C12 cells were plated in 96-well plates (Corning, Cultek, Spain) (12.500 cells/well). Cell proliferation was measured using AlamarBlue assay according to the manufacturer's instructions, at 24 and 48 h of myogenic differentiation.

C2C12 [4] = test: AMPK phosphorylation assay kit (short time points); format: cell-based; conditions: myoblast, 1 μM, 10 min after switching to 2% HS; control 1.97±0.17
Procedure: Assay was performed with the AMPK phosphorilation assay kit (Abnova Corporation, Jhouzih St, Taiwan) as manufactor instructions and pAMPK was measured at λex/em 530/585 nm and 360/450 nm for total protein with Tecan Infinite.

C2C12 [5] = test: Nucleotide concentration by HPLC during C2C12 differentiation; format: cell-based
Procedure: Supernatant and cell lysate are collected every day. Cells were lysated with a homemade buffer (1 mM phenylmethylsulfonyl fluoride, 1 mM protease inhibitor cocktail, 1 mM sodium orthovanadate, 1 mM sodium fluoride and 1 mM β-glicerophospate) and supernatant was used directly. A heat shock step was done at 98° C. for 2 min, and to avoid adenosine degradation 1 μM EHNA was added at the time of heating. All samples were centrifuged at 13000 g for 10 min at 4° C. and supernatants were collected and stored at −80° C. until use. Inosine, adenosine, AMP, ADP and ATP concentrations were determined with high performance liquid chromatography (HPLC) using a liquid chromatograph with a reversed phase column (Agilent 1100 Series Liquid Chromatography) and an UV detector set at 254 nm. Buffer composed of 0.1 mol/L KH2PO4 (pH 7.5) and 18% acetonitrile was run at 1.5 ml/min for 20 min. Compounds were identified and quantified by their retention times and peak areas of known standards, calibrated by spectrophotometry. […] The results have been corrected and expressed as mean±SEM. All results were calculated as a percentage of controls without differentiation state.

C2C12 [6] = test: Western blot of phosphorylated AMPK; format: cell-based; conditions: 1 μM, day 4, vs basal
Procedure: as §1
We next studied if these changes in AMP/ATP ratio had any effect in AMPK activation.

C2C12 [7] = test: Western blot of myogenesis markers during differentiation; format: cell-based
Procedure: as §1

C2C12 [8] = test: Western blot of PKA isoforms, pCREB, EPAC1/2; format: cell-based
Procedure: as §1
To study the CAMP signaling pathway, we analyzed the expression of PKA on its three catalytic isoforms PKAα, PKAβ and PKAγ as well as EPAC1/2. […] Tenofovir reduced its phosphorylation (154±9% tenofovir vs 247±30% control at day 4, p<0.05, FIG. 3B).

C2C12 myobundles = test: C2C12 3D myobundle with IL-6 ± dipyridamole; format: cell-based; conditions: IL-6 2.5 μg/ml ± dipyridamole 1 μM, 14 days; Sham 890±39
Excerpt: C2C12 myobundles were fabricated following the protocol described by Bursac group (see references in ref. 44). Briefly, molds of polydimethylsiloxane (PDMS) designed for 12-well plates were created from Teflon masters with semicylindrical wells. These molds were sterilized, coated with 0.2% (w/v) Pluronic F-127 (Invitrogen) to prevent tissue adhesion, and paired with laser-cut Cerex frames (9×9 mm^2, 1-mm-wide rim) for myobundle attachment. The frames served as an anchor and guide during hydrogel compaction, ensuring uniaxial cell alignment. C2C12 cells were encapsulated in a hydrogel solution, including bovine fibrinogen (Sigma-Aldrich), matrigel (Corning), bovine thrombin (Sigma-Aldrich), and growth medium as concentration of bursac group indicates Referencias. The cell/hydrogel mixture was polymerized in the PDMS molds, and myobundles were cultured in a humidified chamber at 37° C., in 95% air and 5% CO2. After 4 days, the frames with myobundles were suspended in DM with treatments. DM and treatments are replaced every two days. GM and DM media contained 6-aminocaproic acid to reduce fibrinolysis. […] After the 14 days of treatment a bright-field photograph was taken to analyze the thickness of the fiber at its midpoint, and subsequently, they were embedded in OCT medium. […]

C2C12 myoblast cell line = test: Western blot of C2C12 under pro-inflammatory conditions with/without dipyridamole; conditions: for PAX7 expression (vs 100% basal): IL-6 2.5 μg/ml, INFγ 1 μg/ml or LPS 10 μg/ml ± dipyridamole 1 μM, control 64.7±5%; for PAX7 expression (vs 100% basal) / AMPK activation / CREB activation / MHC expression (vs 100% basal) / PKAα expression: day 4; for A2BR expression / AMPK activation / CREB activation / MHC expression (vs 100% basal): cytokine/LPS ± dipyridamole 1 μM; for AMPK activation: control 222.7±23.9%; for CREB activation: control 353.7±45.15%; for MHC expression (vs 100% basal): control 757.6±85.7%; for PKAα expression: control 213.9±21.6%
Procedure: Western blot was performed as described above.
Protein concentration was determined by BCA. 4 μg for cells and 40-50 μg for tissue samples of protein was subjected to 6-15% SDS-PAGE and transferred to a nitrocellulose membrane. Membranes were blocked with 3% BSA in Tris-buffered saline containing 0.1% Tween-20 (TBS-T). After that, the membranes were incubated overnight at 4° C. with the primary antibodies for A2A, A2B, MHC (Thermo Fisher Scientific, Waltham, USA), AMPK, pAMPK (Thr172), p21, p16 (Cell signaling, Danvers, EEUU) (1:1000 each) and Pax-7 (Developmental Studies Hybridoma Bank, Houston, EEUU) (1:500 each).

Molecule: C[C@H](Cn1cnc2c(N)ncnc21)OCP(=O)(O)O [tenofovir]
- Body weight lost [1]: ~10%
- Adenosine A2B receptor protein expression (% of basal) (C2C12 [2]; 1 μM each, day 4): 553±47%
- A3 receptor protein expression (C2C12 [2]; 1 μM, compared to control): did not change
- P2X7 protein expression (% of basal) (C2C12 [2]; 1 μM, day 4): 89±19%
- cAMP levels (C2C12 [3]): 0.24±0.07
- Proliferation compared to control (C2C12 cells; 1 μM): 63.3±5%
- Proliferation compared to control (C2C12 cells; 10 μM): 62.8±6.4%
- AMPK activation (C2C12 [4]): 1.02±0.19
- Intracellular ATP (C2C12 [5]; 1 μM each, day 1, control 4.93±0.02): 11.56 ± 0.26 nM and 11.74 ± 0.08 nM
- Intracellular AMP/ATP ratio (C2C12 [5]; 1 μM each, day 3, control 1.88±0.12): 0.62±0.03
- Extracellular ATP (C2C12 [5]; 1 μM each, day 4, control 14.7±0.5): 10.67 ± 0.28 nM
- Intracellular adenosine (C2C12 [5]; 1 μM, day 4, control 10.87±0.73): did not change
- Intracellular inosine (C2C12 [5]; 1 μM, day 4, control 11.07±0.54): did not modulate
- Intracellular AMP (C2C12 [5]; 1 μM, day 4, control 12.10±0.73): 6.33 ± 0.35 nM
- Extracellular adenosine (C2C12 [5]; 1 μM, day 4 of differentiation, control 11.6±0.81): 6.65 ± 0.54 nM
- pAMPK (Western blot) (C2C12 [6]): 1.15±0.05
- MHC protein expression (% of basal) (C2C12 [7]; 1 μM each, day 1): 1429±379% and 1153±131%
- PAX7 protein expression (% of basal) (C2C12 [7]; 1 μM, day 1, control 315±58%): 101±23%
- MyoD protein expression (% of basal) (C2C12 [7]; 1 μM, day 2, control 182±8%): 389±33%
- Myf5 protein expression (% of basal) (C2C12 [7]; 1 μM, first 2 days of differentiation): 142±23%
- PKAα protein expression (% of basal) (C2C12 [8]; 1 μM each, day 4, control 292±65%): 215±90% and 215.8±94.2%
- pCREB (% of basal) (C2C12 [8]; 1 μM, day 4, control 247±30%): 154±9%
- EPAC2 protein expression (C2C12 [8]; 1 μM, within differentiation): maintained the expression similar to basal levels

B1: IL-6: pro-inflammatory cytokine used at 2.5 μg/ml on C2C12 (protein, UniProt P08505 25-211, looked up)
Interleukin-6: FPTSQVRRGDFTEDTTPNRPVYTTSQVGGLITHVLWEIVEMRKELCNGNSDCMNNDDALAENNLKLPEIQRNDGCYQTGYNQEICLLKISSGLLEYHSYLEYMKNNLKDNKKDKARVLQRDTETLIHIFNQEVKDLHKIVLPTPISNALLTDKLESQKEWLRTKTIQFILKSLEEFLKVTLRSTRQT
- Myobundle thickness (C2C12 myobundles): 616.3±22.9 μm
- PAX7 expression (vs 100% basal) (C2C12 myoblast cell line): 121±8%
- A2BR expression (C2C12 myoblast cell line; 24 h, control 112.9±4.7%): 75.8±2.2%
- A2BR expression (C2C12 myoblast cell line; 4 days, control 172.7±12.6%): 67.6±3%
- AMPK activation (C2C12 myoblast cell line): 80.9±5.8%
- CREB activation (C2C12 myoblast cell line): 163.4±19.26%
- MHC expression (vs 100% basal) (C2C12 myoblast cell line): 127.7±15.8%
- PKAα expression (C2C12 myoblast cell line): 107±5.8%

B2: INFγ: pro-inflammatory cytokine used at 1 μg/ml on C2C12 (protein, UniProt P01580 23-155, looked up)
Interferon gamma: HGTVIESLESLNNYFNSSGIDVEEKSLFLDIWRNWQKDGDMKILQSQIISFYLRLFEVLKDNQAISNNISVIESHLITTFFSNSKAKKDAFMSIAKFEVNNPQVQRQAFNELIRVVHQLLPESSLRKRKRSRC
- PAX7 expression (vs 100% basal) (C2C12 myoblast cell line): 114±11%
- A2BR expression (C2C12 myoblast cell line; 24 h, control 112.9±4.7%): 69.3±1.9%
- A2BR expression (C2C12 myoblast cell line; 4 days, control 172.7±12.6%): 66.03±20.3%
- AMPK activation (C2C12 myoblast cell line): 80.4±6.1%
- CREB activation (C2C12 myoblast cell line): 176.7±27.8%
- MHC expression (vs 100% basal) (C2C12 myoblast cell line): 123.1±20.3%
- PKAα expression (C2C12 myoblast cell line): 101.7±3.7%

From patent US20260263468A1 (Fundación Instituto de Investigación Sanitaria Fundación …, priority 2023, published 2026)
